# Where “and” joins values, the source holds several entries; their conditions need not be identical. Identical values can stand only once. Like-named read-outs stand apart in the source and are kept apart here. Where a SMILES comes first, the peptide text is derived from it. The star is where a group is joined. Cbz = O=C(OCc1ccccc1)*
# Key:
# [1] = molecular target: Muscle and erythrocyte calpain; assay: In Vitro Assay of Calpain (fluorometric, t-Boc-Val-Leu-Lys-7-amido-4-methyl-coumarin substrate); type: biochemical; conditions: In Vitro Calpain Inhibition
# Protocol: In Vitro Assay of Calpain in the Prescence of Calpain Inhibitors
# Muscle and erythrocyte calpain were assayed by a fluorometric procedure using t-Boc-Val-Leu-Lys-7-amido-4-methyl-coumarin as the substrate, Sasaki et al., J. Biol. Chem. 259, 12489-12494 (1984). The enzyme calpain is commercially available and may be purchased from Sigma. The assay buffer, pH, assay techniques and calculation of the inhibitory constant (Ki) are similar to those described by Mehdi et al., Biochem. Biophys. Res. Commun. 157, 1117-1123 (1988).
# [2] = system: male spontaneously hypertensive rats; assay: Neuroprotection in vivo, focal cerebral ischemia by permanent tandem occlusion of right middle cerebral artery and right common carotid artery; parameters: species or system rat (spontaneously hypertensive)
# Protocol: Neuroprotection In Vivo With MDL 104,903 In a Model of Focal Cerebral Ischemia
# For example, twelve male spontaneously hypertensive rats were divided into two groups: a vehicle-treated group and a calpain inhibitor-treated groups (MDL 104,903; 4×30 mg/kg cumulative doses). Ischemia was induced by permanent tandem occlusion of the right middle cerebral artery and right common carotid artery. Animals were killed 24 hours after surgery, and quantitative measurements of infarction volumes were performed using standard histological techniques and quantitative image analysis.
# [3] = molecular target: calpain; conditions: broken membrane preparations; cited from earlier work
# [4] = system: calpain; conditions: cited from earlier work
# [5] = system: rats; conditions: cited from earlier work
# [6] = system: proteolytic response to post-decapitation ischemia; conditions: cited from earlier work
# [7] = individual animal, inhibitor-treated group, 4×30 mg/kg I.V., 24 hours after surgery, 30 mg/kg
molecule,measurement,setting,value
"CC(=O)O[C@@H]1OCN(C(=O)[C@@H](NC(=O)OCc2ccccc2)C(C)C)[C@H]1Cc1ccccc1 [MDL 104,860, [4S-[3(R*),4α,5β]]-[1-[[5-(acetyloxy)-4-(phenylmethyl)-3-oxazolidinyl]carbonyl]-2-methylpropyl]carbamic acid, phenylmethyl ester]",Ki,[1],1.45 µM
"CCOC(=O)CCC(=O)O[C@@H]1OCN(C(=O)[C@@H](NC(=O)OCc2ccccc2)C(C)C)[C@H]1Cc1ccccc1 [MDL 105,608, [4S-[3(R*),4α,5β]]-[1-[[5-(ethylsuccinyloxy)-4-(phenylmethyl)-3-oxazolidinyl]carbonyl]-2-methylpropyl]-carbamic acid, phenylmethyl ester]",Ki,[1],0.7 µM
"CCCCC(CC)C(=O)O[C@@H]1OCN(C(=O)[C@@H](NC(=O)OCc2ccccc2)C(C)C)[C@H]1Cc1ccccc1 (stereo partly drawn) [MDL 104,092, [4S-[3(R*),4α,5β]]-[1-[[5-(2-ethylhexanoyl-oxy)-4-(phenylmethyl)-3-oxazolidinyl]carbonyl]-2-methylpropyl]-carbamic acid, phenylmethyl ester]",Ki,[1],0.3 µM
"COc1ccc(CC(=O)O[C@@H]2OCN(C(=O)[C@@H](NC(=O)OCc3ccccc3)C(C)C)[C@H]2Cc2ccccc2)cc1 [MDL 105,236, [4S-[3(R*),4α,5β]]-[1-[[5-(4-methoxyphenyl-acetyloxy)--4-(phenylmethyl)-3-oxazolidinyl]carbonyl]-2-methylpropyl-1]-carbamic acid, phenylmethyl ester]",Ki,[1],1.1 µM
"CC(C)[C@H](NC(=O)OCc1ccccc1)C(=O)N1CO[C@@H](O)[C@@H]1Cc1ccccc1 [MDL 104,903, [4S-[3(R*),4α,5β]]-[1-[[5-hydroxy-4-(phenylmethyl)-3-oxazolidinyl]carbonyl]-2-methylpropyl]-carbamic acid, phenylmethyl ester]",Ki,[1],0.033 µM
same,reduction in infarct volume,"[2]; 4×30 mg/kg I.V. doses via femoral vein at 2 hour intervals beginning 5 min. after initiation of ischemia, 24 hours after surgery",20.5%
same,% of Reduction (Percentage of Infarct Reduction),"[2]; comparison of mean values with vehicle group, 4×30 mg/kg I.V.",20.24%
same,Brain Volume,"[2]; individual animal, inhibitor-treated group, 4×30 mg/kg I.V. at 2 hour intervals from 5 min after ischemia, 24 hours after surgery, 30 mg/kg",1307.52 mm^3 and 1309.36 mm^3 and 1257.24 mm^3 and 1313.62 mm^3 and 1333.44 mm^3 and 1326.46 mm^3
same,Infarct Vol. v. Brain Vol.,[2]; [7],12.61% and 14.14% and 13.59% and 10.07% and 10.93%
same,Infarct Volume,[2]; [7],164.94 mm^3 and 185.16 mm^3 and 170.84 mm^3 and 178.58 mm^3 and 134.28 mm^3 and 144.92 mm^3
same,"Infarct Vol. v. Brain Vol., mean","[2]; mean of inhibitor-treated group (animals 7-12), 4×30 mg/kg I.V., vehicle mean 15.66",12.49%
same,"Infarct Volume, mean","[2]; mean of inhibitor-treated group (animals 7-12), 4×30 mg/kg I.V., vehicle mean 205.14",163.12 mm^3
same,"Brain Volume, mean","[2]; mean of inhibitor-treated group (animals 7-12), 4×30 mg/kg I.V., vehicle mean 1310.15",1307.94 mm^3
"CC(C)[C@H](NC(=O)OCc1ccccc1)C(=O)N1CO[C@@H](OC(=O)N2CCOCC2)[C@@H]1Cc1ccccc1 [MDL 105,803, [4S-[3(R*),4α,5β]]-3-[3-methyl-1-oxo-2-[[(phenylmethoxy)carbonyl]amino]butyl]-4-(phenylmethyl)-5-oxazolidinyl ester, 4-morpholinecarboxylic acid]",Ki,[1],2 µM
"[4S-[3(R*),4α,5β]]-[1-[[5-(propionyloxy)-4-(phenylmethyl)-3-oxazolidinyl]carbonyl]-2-methylpropyl]-carbamic acid, phenylmethyl ester [MDL 105,387]",Ki,[1],1.2 µM
CC(C)[C@H](NC(=O)OCc1ccccc1)C(=O)N[C@H](C=O)Cc1ccccc1 [Cbz-Val-Phe-H] (Cbz-Val-Phe-aldehyde),Ki for calpain,[3],low
same,cell penetration,[4]; inhibitor of calpain,cell-penetrating
same,Ki for calpain,[4]; intact cell systems,low
same,"reduction of infarction, edema, and calcium-activated proteolysis","[5]; intravenous injections, cumulative doses of 30 mg/kg or 60 mg/kg","effective in reducing infarction, edema, and calcium-activated proteolysis"
same,volumes of cerebral infarction,"[5]; rats, versus saline-treated or vehicle-treated control animals",significantly smaller
same,proteolytic response to post-decapitation ischemia,[6],reduced
"CC(C)[C@@H](C(=O)N1CO[C@@H](O)[C@@H]1Cc1ccccc1)N(C)C(=O)OCc1ccccc1 [MDL 105,423, [4S-[3(R*),4α,5β]]-[1-[[5-hydroxy-4-(phenylmethyl-3-oxazolidinyl]carbonyl]-2-methylpropyl]methyl-carbamic acid, phenylmethyl ester]",Ki,[1],2.1 µM
"CCCC(=O)O[C@@H]1OCN(C(=O)[C@@H](NC(=O)OCc2ccccc2)C(C)C)[C@H]1Cc1ccccc1 [MDL 103,821, [4S-[3(R*),4α,5β]]-[1-[[5-butyryloxy)-4-(phenylmethyl)-3-oxazolidinyl]carbonyl]-2-methylpropyl]-carbamic acid, phenylmethyl ester]",Ki,[1],1.3 µM

# Source: patent publication US5691368A, “Substituted oxazolidine calpain and/or cathepsin B inhibitors” (Hoechst Marion Roussel, Inc., priority 1995, dated 1997)
